Experimental data as given in article PMC4014703 (Pharmaceuticals, 2014).
Where a SMILES comes first, the peptide text is derived from it. Side-chain parts run from the residue outwards. [ ]: non-standard residue; d: D form. The star is where a group is joined. DOTA = O=C(O)CN1CCN(CC(=O)O)CCN(CC(=O)*)CCN(CC(=O)O)CC1; PEG6 = NCCOCCOCCOCCOCCOCCOCCC(=O)O; Tle = CC(C)(C)[C@H](N)C(=O)O; Nlys = NCCCCNCC(=O)O

How the values were obtained:
in vivo = assay: in vivo; parameters: species or system nude mice; settings: nude, mouse, total radioactivity
Description: 10–14 days after inoculation of the HT29 cells (tumor weight: 200–700 mg), the mice (about 10–12 weeks old with about 35–40 g body weight) were used for biodistribution studies. […] They were sacrificed by cervical dislocation 1 h, 4 h and 24 h after injection. Tumors and other tissues (blood, lung, liver, kidneys, heart, spleen, brain, muscle, femur and intestine) were rapidly removed and weighed. Radioactivity of the dissected tissues was measured using a gamma counter (Wallac Wizard, Perkin Elmer). Results were expressed as percentage of injected dose per gram of tissue (% ID/g), and tumor-to-organ ratios were calculated. Two randomly chosen mice were used for the determination of nonspecific tracer uptake in vivo. […] These mice were sacrificed by cervical dislocation at 4 h post injection (p.i.) and organs and tissue were removed, weighed and counted as described above.

tumor = settings: ^188Re-labeled peptide, day 6 after begin of treatment; cited from earlier work

Compound	tissue to tissue ratio at 1 h (in vivo; iv)	tissue to tissue ratio at 24 h (in vivo; iv)	tissue uptake at 1 h (in vivo; iv) [%ID/g]	tissue uptake at 24 h (in vivo; iv) [%ID/g]	tissue uptake at 24 h (in vivo; iv, Accumulation in HT29 tumor) [%ID/g]	tissue uptake at 1 h (in vivo; iv, Accumulation in kidney) [%ID/g]	tissue uptake at 24 h (in vivo; iv, Radioactivity concentration in liver) [%ID/g]	tissue uptake at 4 h (in vivo; Accumulation in HT29 tumor) [%ID/g]	Tumor growth in tumor-bearing nude mice (tumor)
CC(C)C[C@H](NC(=O)[C@@H](NC(=O)[C@H](Cc1ccc(O)cc1)NC(=O)[C@@H]1CCCN1C(=O)[C@H](CCCCN)NC(=O)CN(CCCCN)C(=O)[C@@H](N)CCCCNC(=O)CCOCCOCCOCCOCCOCCOCCNC(=O)CN1CCN(CC(=O)O)CCN(CC(=O)O)CCN(CC(=O)O)CC1)C(C)(C)C)C(=O)O [[^177Lu]NT127, metal not drawn] (H-K([PEG6-DOTA])[Nlys]KPY[Tle]L-OH)	30	60	0.05	0.01	0.6	38 ± 1	0.4	1.1	
(N^αHis)Ac-Arg-(N-CH3)-Arg-Pro-Dmt-Tle-Leu [NT-XIX]									decreased
